Laboratory results from patent publication US20230280275A1, “PHOTOACTIVATABLE VIBRATIONAL PROBES AND USES THEREOF” (California Institute of Technology, priority 2021, published 2023).

Columns and labels:
[1] = UV-Vis absorption spectra; assay type: physicochemical; conditions: 20 uM in DMSO
Experimental: UV-Vis absorption spectra were recorded on a Varian Cary 50 UV-Vis Spectrophotometer (Agilent).

[2] = Spontaneous Raman / hyperspectral SRS spectroscopy of probes and uncaged alkynes; assay type: physicochemical; conditions: for Raman Peak: cell silent region, model systems; for RIE (relative Raman intensity to EdU): 10 mM EdU (H2O) as standard
Source text: (§1) An integrated laser (picoEMERALD, Applied Physics and Electronics, Inc.) was used as a light source for both pump and Stokes beams. It produces 2 ps pump (tunable from 770 nm - 990 nm, bandwidth 0.5 nm, spectral bandwidth ~ 7 cm-1 ) and Stokes (1031.2 nm, spectral bandwidth 10 cm-1 ) beams with 80 MHz repetition rate. Stokes beam is modulated at 20 MHz by an internal electro-optic modulator. The spatially and temporally overlapped pump and Stokes beams are introduced into an inverted multiphoton laser scanning microscopy (FV3000, Olympus), and then focused onto the sample by a 25X water objective (XLPLN25XWMP, 1.05 N.A., Olympus). Transmitted pump and Stokes beams are collected by a high N.A. condenser lens (oil immersion, 1.4 N.A., Olympus) and pass through a bandpass filter (893/209 BrightLine, 25 mm, AVR Optics) to filter out Stokes beam. A large area (10×10 mm) Si photodiode (S3590-09, Hamamatsu) is used to measure the remaining pump beam intensity. 64 V DC voltage was used on the photodiode to increase saturation threshold and reduce response time. The output current is terminated by a 50 Ω terminator and pre-filtered by an 19.2-23.6-MHz band-pass filter (BBP-21.4+, Mini-Circuits) to reduce laser and scanning noise. The signal is then demodulated by a lock-in amplifier (SR844, Stanford Research Systems) at the modulation frequency. The in-phase X output is fed back to the Olympus IO interface box (FV30-ANALOG) of the microscope. Image acquisition speed is limited by 30 µs time constant set for the lock-in amplifier. Correspondingly, we use 80 µs pixel dwell time, which gives a speed of 8.5 s frame-1 for a 320-by-320-pixel field of view. Laser powers are monitored through image acquisition by an internal power meter and power fluctuation are controlled within 5% by the laser system. 16-bit grey scale images are acquired by Fluoview software. SRS spectra were acquired by fixing the Stokes beam at 1031.2 nm and scanning the pump beam through the designated wavelength range point by point. 10 mM EdU (H2O) sample was used as a standard to give RIE of different probes. Fluorescence images were collected using the same Olympus FV3000 confocal microscope with CW laser excitation (405, 488, 561 and 640 nm, Coherent OBIS LX laser) and standard bandpass filter sets. The correlation coefficients (Pearson’s R value) between SRS images and fluorescence images were calculated using ‘Coloc 2’ tool of ImageJ.
To perform spontaneous Raman spectroscopy, spontaneous Raman spectra were acquired using an upright confocal Raman spectrometer (Horiba Raman microscope; Xplora plus). A 532 nm YAG laser is used to illuminate the sample with a power of 12 mW on sample through a 100 x, N.A. 0.9 objective (MPLANN; Olympus) with 100 µm slit and 500 µm hole. Spectro/Raman shift center was set to be 2000.04 cm-1 . With a 1200 grating, Raman shift ranges from 690.81 cm-1 to 3141.49 cm-1 was acquired to cover whole biological relevant Raman peaks. The acquired spectra were processed by the LabSpec 6 software for baseline correction.
Cyclopropenone caging has been previously adopted for photoactivation and subsequent biorthogonal labeling of fluorophores in fluorescence microscopy. […] Herein the alkyne Raman signal generation from photo-DIBO light-activation was first measured (FIG. 1A). […] Compared to 5-ethynyl-2′-deoxyuridine (EdU), the well-adopted benchmark for Raman intensity quantification, the relative Raman intensity to EdU (RIE) of the strained alkyne DIBO is only 1.8 (Table 1). […] Given this, it is reasoned that diphenylcyclopropenone (i.e. cyclopropenone-caged 1-yne, 1-cyclo, 1, FIG. 1A) should be a better photoactivatable Raman scaffold with higher Raman sensitivity after uncaging. Indeed, UV-uncaging of 1-cyclo (1), which started from a similarly weak Raman peak at 1860 cm^-1 from photo-DIBO, produced an intense sharp peak for 1-yne (2) at 2226 cm^-1 (FIG. 1B, dashed black vs solid blue spectra) with an improved RIE values to about 4

[3] = Photoactivation (UV-uncaging) monitored by time-series spontaneous Raman spectra; assay type: physicochemical
Experimental: The 365 nm UV light used to activate cyclopropenones comes from a UV handlamp (Analytik Jena UVP EL Series Lamp, UVLS-24, 4 Watt, 2 UV 254/365 nm, typically used for TLC monitoring in organic synthesis). The power of 365 nm UV of this handlamp was measured to be 15 mW/cm2 on samples.
Next, the photo-uncaging kinetics for both 1-cyclo (1) and 2-cyclo (3) were compared. […] With 365 nm lamp illumination, the characteristic peaks of cyclopropenones (~1860 cm^-1) continue to drop while the alkyne peaks (2226 cm^-1) gradually increase for both molecules (FIG. 1D). […] The progression of the UV-activation reactions could also be confirmed by the change in the corresponding absorption spectra (FIG. 6).

lipid droplets = assay: Live-cell photo-uncaging lipid droplets imaging, SRS/fluorescence co-localization; assay type: cell-based; conditions: live HeLa cells, SRS vs Lipid spot 610
Source text: as §1
Lipid droplets imaging by Me-LD (15): Cells were incubated in 20 µM Me-LD (15) with complete DMEM medium for 30 minutes in the incubator. Cells were washed with PBS three times before imaging. For colocalization, 0.5 x LipidSpot™ 610 (Biotium, #70069) was used to stain cells for 20 minutes. For photo-uncaging, 405 nm laser was used to scan the selected field of view for 2 minutes (1.6 mW).
Lipid droplets imaging by Cyclo-LD (17): Cells were washed with PBS for three times before labeling. Cells were then incubated in 20 µM Cyclo-LD (17) with PBS for 30 minutes in the incubator. Cells were washed with PBS three times before imaging. For colocalization, 0.5 x LipidSpot™ 610 (Biotium, #70069) was used to stain cells for 20 minutes. For photo-uncaging, 405 nm laser (1.6 mW) was used to scan the selected field of view for 2 minutes.

live HeLa cells = assay: SRS imaging of live HeLa cells incubated with unmethylated probes before and after 405 nm illumination; assay type: cell-based; conditions: 20 µM, 30 minutes of labeling; 2226 cm^-1 channel after 405 nm
Experimental: FIG. 7 provides exemplary results from SRS imaging of live HeLa cells incubated with 1-cyclo (1, 20 µM, 30 minutes of labeling, top) and Cyclo-Mito (7, 20 µM, 30 minutes of labeling, bottom) at the CH3 (2940 cm^-1) channel, and the expected uncaged alkyne channel (2226 cm^-1) before and after 405 nm illumination. Scale bar: 10 µm.
An integrated laser (picoEMERALD, Applied Physics and Electronics, Inc.) was used as a light source for both pump and Stokes beams. It produces 2 ps pump (tunable from 770 nm - 990 nm, bandwidth 0.5 nm, spectral bandwidth ~ 7 cm-1 ) and Stokes (1031.2 nm, spectral bandwidth 10 cm-1 ) beams with 80 MHz repetition rate. Stokes beam is modulated at 20 MHz by an internal electro-optic modulator. […] Laser powers are monitored through image acquisition by an internal power meter and power fluctuation are controlled within 5% by the laser system. […] Fluorescence images were collected using the same Olympus FV3000 confocal microscope with CW laser excitation (405, 488, 561 and 640 nm, Coherent OBIS LX laser) and standard bandpass filter sets. The correlation coefficients (Pearson’s R value) between SRS images and fluorescence images were calculated using ‘Coloc 2’ tool of ImageJ.

endoplasmic reticulum = assay: Live-cell photo-uncaging ER imaging, SRS/fluorescence co-localization; assay type: cell-based; conditions: live HeLa cells
Source text: as §1
ER imaging: Cells were incubated in 40 µM Me-ER (14) with complete DMEM medium for 2 hours in the incubator. Cells were washed with PBS three times before imaging. For colocalization, 0.5 µM ER-Tracker™ Red (Invitrogen, E34250) was used to stain cells for 1 hour. For photo-uncaging, 405 nm laser was used to scan the selected field of view for 2 minutes (1.6 mW).

lysosomes = assay: Live-cell photo-uncaging lysosomes imaging, SRS/fluorescence co-localization; assay type: cell-based
Source text: as §1
Lysosomes imaging: Cells were incubated in 30 µM Me-Lyso (13) with complete DMEM medium for 2 hours in the incubator. Cells were washed with PBS three times before imaging. For colocalization, 0.4 x LysoView™ 488 (Biotium, #70067) was used to stain cells for 30 minutes. For photo-uncaging, 405 nm laser was used to scan the selected field of view for 2 minutes (1.6 mW).

mitochondria = assay: Live-cell photo-uncaging mitochondria imaging, SRS/fluorescence co-localization; assay type: cell-based; conditions: live HeLa cells
Source text: as §1
Mitochondria imaging: Cells were incubated in 16 µM Me-Mito (12) or Me-Mito^13C (16) with complete DMEM medium for 40 minutes in the incubator. Cells were washed with PBS three times before imaging. For colocalization, 80 nM MitoTracker™ Deep Red (Invitrogen, M22426) was used to stain cells for 25 minutes. […]

[4] = (HP)LC-MS for assessing the stability of cyclopropenone probes in physiological condition; assay type: physicochemical; conditions: 10 mM cysteine (PBS), 37° C., HPLC trace
Experimental: The assessed probe was first dissolved in DMSO and later diluted in 10 mM cysteine (Sigma, 168149, dissolved in PBS) solution or DMEM (Corning, 35-015-CV) medium. Analytical HPLC coupled with mass spectrometry (LC-MS) was performed on Agilent 1290 infinity LC system using ZORBAX RRHD Eclipse Plus C18, 95 Å, 2.1 x 50 mm, 1.8 µm column with Agilent 6140 Series Quadrupole LCMS / LC-MS / MSD / Mass Spectrometer System. The mobile phase is water (0.1% AcOH) and acetonitrile with running method of gradient 5%-95% acetonitrile (1 ml/min, 4 min for total running time). The mass spectrometry detection region ranges from 100 to 800 AMU. The data shown in the main figures and supplementary figures are the absorption (280.8 nm) intensity traces.
It was hypothesized that this was likely because the cyclopropenone structures are susceptible to nucleophilic attack, leading to ring-opened α,β-unsaturated acids derivatives. Cysteines, glutathione, and other biological thiols are strong nucleophiles and could easily deactivate cyclopropenones. The stability of 1-cyclo (1) in 10 mM cysteine phosphate-buffered saline (PBS) at 37° C. was therefore tested, mimicking physiological conditions.

[5] = SRS vs ER tracker red, Fl/2205 cm^-1 channel
[6] = live HeLa cells, SRS vs Lysoview 488, Fl/2205 cm^-1 channel
[7] = SRS vs Mitotracker deep red, Fl/2225 cm^-1 channel

C(#Cc1ccccc1)c1ccccc1 [1-yne (2), diphenylacetylene]
Abs [1]: 283 nm | εabs [1]: 32300 M⁻¹ cm⁻¹ | Raman Peak [2]: 2226 cm⁻¹

O=c1c(C#Cc2ccccc2)c1-c1ccccc1 [2-cyclo (3), 2-phenyl-3-(phenylethynyl)cycloprop-2-en-1-one]
uncaging kinetics k ([3]; 365 nm illumination (15 mW/cm^2), increase of alkyne peak 2226 cm^-1): 0.020 s⁻¹ | uncaging kinetics, fold faster than 1-cyclo (1) ([3]; 365 nm lamp illumination): about 5 fold | Abs [1]: 324 nm | εabs [1]: 32400 M⁻¹ cm⁻¹ | RIE (relative Raman intensity to EdU) [2]: 7.5 | Raman Peak [2]: 2218 cm⁻¹

O=c1c(C#Cc2ccccc2)c(C#Cc2ccccc2)c1=O [3-cyclo (5), 3,4-Bis(phenylethynyl)-3-cyclobutene-1,2-dione]
Abs [1]: 371 nm | εabs [1]: 25500 M⁻¹ cm⁻¹ | RIE (relative Raman intensity to EdU) [2]: 13 | Raman Peak [2]: 2194 cm⁻¹

O=c1c(-c2ccccc2)c1-c1ccc(OCCOCCOCCCCCCCl)cc1 [Cyclo-LD (17), 2-(4-(2-(2-((6-chlorohexyl)oxy)ethoxy)ethoxy)phenyl)-3-phenylcycloprop-2-en-1-one]
correlation coefficient (Pearson's R value), set 1 (lipid droplets; Fl/2226 cm^-1 channel): 0.50 | correlation coefficient (Pearson's R value), set 2 (lipid droplets; Fl/2226 cm^-1 channel): 0.76

O=c1c(-c2ccccc2)c1-c1ccc(OCCC[P+](c2ccccc2)(c2ccccc2)c2ccccc2)cc1.[Br-] [Cyclo-Mito (7)]
uncaging signals in labeled live cells (live HeLa cells): did not produce any observable uncaging signals

Cc1ccc(S(=O)(=O)NCCCOc2cc(C)c(-c3c(-c4c(C)cc(C)cc4C)c3=O)c(C)c2)cc1 [Me-ER (14)]
targeting, photoactivation and imaging performances (endoplasmic reticulum): highly specific targeting | correlation coefficient (Pearson's R value), set 1 (endoplasmic reticulum; [5]): 0.86 | correlation coefficient (Pearson's R value), set 2 (endoplasmic reticulum; [5]): 0.80 | correlation coefficient (Pearson's R value), set 3 (endoplasmic reticulum; [5]): 0.90

Cc1cc(C)c(-c2c(-c3c(C)cc(OCCOCCOCCCCCCCl)cc3C)c2=O)c(C)c1 [Me-LD (15)]
correlation coefficient (Pearson's R value), set 1 (lipid droplets; Fl/2205 cm^-1 channel): 0.54 | correlation coefficient (Pearson's R value), set 2 (lipid droplets; Fl/2205 cm^-1 channel): 0.54 | correlation coefficient (Pearson's R value), set 3 (lipid droplets; Fl/2205 cm^-1 channel): 0.50

Cc1cc(C)c(-c2c(-c3c(C)cc(OCCN(C)C)cc3C)c2=O)c(C)c1 [Me-Lyso (13)]
correlation coefficient (Pearson's R value), set 1 (lysosomes; [6]): 0.60 | correlation coefficient (Pearson's R value), set 2 (lysosomes; [6]): 0.67 | correlation coefficient (Pearson's R value), set 3 (lysosomes; [6]): 0.62 | lysosomes targeting (co-localization) (lysosomes; live cells co-labeled with Lysoview 488): desired co-localization

Cc1cc(C)c(-c2c(-c3c(C)cc(OCCC[P+](c4ccccc4)(c4ccccc4)c4ccccc4)cc3C)c2=O)c(C)c1 [Me-Mito (12)]
alkyne Raman peak / SRS channel after uncaging ([2]; organelle probes after UV / 405 nm uncaging): 2205 cm⁻¹ | correlation coefficient (Pearson's R value), set 1 (mitochondria; [7]): 0.85 | correlation coefficient (Pearson's R value), set 2 (mitochondria; [7]): 0.82 | correlation coefficient (Pearson's R value), set 3 (mitochondria; [7]): 0.88 | SRS imaging at the alkyne channel after photoactivation (mitochondria; two minutes of 405 nm laser illumination, 2205 cm^-1): bright mitochondria pattern | time stable to cysteine [4]: over 48 hours

Cc1cc(C)c(-c2c(-c3c(C)cc(O)cc3C)c2=O)c(C)c1 [compound 8]
time stable to cysteine [4]: ≥ 24 h

dibenzocyclooctynes [DIBO, reference compound]
Abs [1]: 323 nm | εabs [1]: 24200 M⁻¹ cm⁻¹ | RIE (relative Raman intensity to EdU) [2]: 1.8 | Raman Peak [2]: 2171 cm⁻¹
